Bounds are passed on as bounds.

Common to all, as to type: cell-based
For assay [1], the system named is WiDr. Description: In vitro anti-tumour cell growth inhibition (method of Skehan et al.), WiDr. The conditions noted are these: colon cancer, amount which inhibits 50% of the cell growth. The protocol: (§1) Compounds 1, 2 and 3 were tested in vitro. together with 2 reference compounds used clinically (carboplatin and cisplatin), against MCF-7 and EVSA-T, two breast cancers, WiDr, a colon cancer, IGROV, an ovarian cancer, M19MEL, a melanoma, A498, a renal cancer, and H226, a non small cell lung cancer. The tests were carried out according to the method of Skehan et al, Journal of the National Cancer Institute, 1990; 82: 1107-1112.

For assay [2], the system named is M19MEL. Description: In vitro anti-tumour cell growth inhibition (method of Skehan et al.), M19MEL. The conditions noted are these: melanoma, amount which inhibits 50% of the cell growth. The procedure: as §1
In assay [3] the test system is MCF-7. Description: In vitro anti-tumour cell growth inhibition (method of Skehan et al.), MCF-7. The conditions noted are these: MCF-7, breast cancer; amount which inhibits 50% of the cell growth. The procedure: as §1
For assay [4], the system named is EVSA-T. As to the kind of experiment: In vitro anti-tumour cell growth inhibition (method of Skehan et al.), EVSA-T. The note with it: breast cancer, amount which inhibits 50% of the cell growth. The protocol:
as §1

Assay [5] has as its system A498. As to the kind of experiment: In vitro anti-tumour cell growth inhibition (method of Skehan et al.), A498. The note with it: A498, renal cancer; amount which inhibits 50% of the cell growth. The procedure:
as §1

Assay [6] concerns H226. As to the kind of experiment: In vitro anti-tumour cell growth inhibition (method of Skehan et al.), H226. The conditions noted are these: H226, non small cell lung cancer; amount which inhibits 50% of the cell growth. The procedure:
as §1

Assay [7] relates to IGROV. As to the kind of experiment: In vitro anti-tumour cell growth inhibition (method of Skehan et al.), IGROV. The conditions noted are these: ovarian cancer, amount which inhibits 50% of the cell growth. The protocol:
as §1

`CC1(C)OC(=O)CC1C(=O)[O-].c1cc[c]([Sn+]([c]2ccccc2)[c]2ccccc2)cc1` [Compound 3, triphenyltin terebate]: the ID50 in assay [1] was 17 ng/mL; in assay [2], 42 ng/mL; in assay [3] it was 17 ng/mL; in assay [4], below 3 ng/mL; in assay [5], 42 ng/mL; in assay [6], 39 ng/mL. The compound also returned an ID50 in assay [7] of 19 ng/mL.
Take `CC1(C)OC(=O)CC1C(=O)[O-].CC1(C)OC(=O)CC1C(=O)[O-].CCC[CH2][Sn+2][CH2]CCC` (centres unmarked) [Compound 1, Di-n-butyltin diterebate]: the ID50 was 134 ng/mL in assay [1]; 61 ng/mL in assay [2]; 27 ng/mL in assay [3]; 25 ng/mL in assay [4]; 61 ng/mL in assay [5]; 104 ng/mL in assay [6]. The same compound gave an ID50 in assay [7] of 18 ng/mL.
Turning to `N.N.[Cl][Pt][Cl]` [Cisplatin, cisplatin, reference compound], the ID50 in assay [1] worked out at 1550 ng/mL; in assay [2], 780 ng/mL; in assay [3], 1400 ng/mL; in assay [4] it was 920 ng/mL; in assay [5], 1200 ng/mL; in assay [6] it was 3158 ng/mL. The same compound showed an ID50 in assay [7] of 230 ng/mL.
As for `N.N.O=C([O-])C1(C(=O)[O-])CCC1.[Pt+2]` [Carboplatin, carboplatin, reference compound], the ID50 amounted to 3500 ng/mL in assay [1]; 5500 ng/mL in assay [2]; 10500 ng/mL in assay [3]; 4500 ng/mL in assay [4]; 18000 ng/mL in assay [5]; 25000 ng/mL in assay [6]. The compound also had an ID50 in assay [7] of 2400 ng/mL.
As for `CC1(C)OC(=O)CC1C(=O)[O-].CCC[CH2][Sn+]([CH2]CCC)[CH2]CCC` [Compound 2, tri-n-butyltin terebate], the ID50 is 11 ng/mL in assay [1]; 11 ng/mL in assay [2]; 3 ng/mL in assay [3]; below 3 ng/mL in assay [4]; 15 ng/mL in assay [5]; 8 ng/mL in assay [6]. For the same compound, in assay [7], the ID50 turned out to be 4 ng/mL.
